The test system of one test is A375. The experiment in a line: NCI cancer cell line panel screening (SRB), melanoma cell line A375. The test is classed as cell-based. The settings on record: Homo sapiens, A-375, read-out: IC50 against melanoma cell line in vitro. The procedure:
(§1) According to the standard protocol (http://dtp.nci.nih.gov/dtpstandard/dwindex/index.isp) of the US National Cancer Institute (NCI) (www.dtp.nci.nih.gov), screening of a cancer cell line panel was performed. Briefly, human cell lines were allowed to grow in an RPMI 1640 medium containing 5% FBS and 2 mM L-glutamine. For a general screening experiment, cells were inoculated in 96-well microtiter plates in 100 μl at a plating density ranging from 5000 cells/well to 40,000 cells/well depending on the doubling time of individual cell lines. After cell inoculation, the microtiter plates were incubated at 37° C., 5% CO2, 95% air, and 100% relative humidity for 24 hours prior to addition of test compounds. 24 hours later, two plates of each cell line were fixed in situ with trichloroacetic acid (TCA) to measure the cell population for each cell line at the time of test compound addition (Tz). Test compounds were solubilized in dimethyl sulfoxide at 400-fold the intended final maximum test concentration, and stored frozen prior to use. At the time of compound addition, an aliquot of frozen concentrate was thawed and diluted to twice the intended final maximum test concentration with a complete medium containing 50 μg/ml of gentamicin. Additional four concentration of 10-fold or ½ log serial dilutions were made to provide a total of five compound concentrations plus control. Aliquots of 100 μl of these different compound dilutions were added to appropriate microtiter wells already containing 100 μl of medium, resulting in the required final compound concentrations.
(§2) Following compound addition, the plates were incubated for additional 48 hours at 37° C., 5% CO2, 95% air, and 100% relative humidity. For adherent cells, the assay was terminated by the addition of cold TCA. Cells were fixed in situ by the gentle addition of 50 μl of cold 50% (w/v) TCA (final concentration, 10% TAC) and incubated at 4° C. for 60 minutes. The supernatant was discarded, and the plates were washed five times with tap water and air-dried. A sulforhodamine B (SRB) solution (100 μl) at 0.4% (w/v) in 1% acetic acid was added to each well, and plates were incubated at room temperature for 10 minutes. After staining, unbound dye was removed by washing five times with 1% acetic acid and the plates were air-dried. Bound stain was subsequently solubilized with 10 mM Trizma base, and the absorbance was read on an automated plate reader at a wavelength of 515 nm. For suspension cells, the methodology was the same except that the assay was terminated by fixing settled cells at the bottom of the wells by gently adding 50 μl of 80% TCA (final concentration, 16% TCA). Using the seven absorbance measurements [time zero (Tz), control growth (C), and test growth rate in the presence of compound at the five concentration levels (Ti)], the growth percentage was calculated at each of the compound concentration levels. Growth inhibition percentage was calculated as follows: [(Ti−Tz)/(C−Tz)]×100 for concentrations for which Ti>/=Tz [(Ti−Tz)/Tz]×100 for concentrations for which Ti<Tz.

A further test concerns the target B-RAF (Homo sapiens (Human), UniProt P15056). Put plainly: Protein kinase enzymatic activity (Reaction Biology kinase hotspot, 33P-ATP). The test is classed as biochemical. The settings on record: read-out: Inhibitory effect against kinase activity, B-RAF (IC50). The procedure:
(§3) Reaction biology kinase hotspot service (http://www.reactionbiology.com) was used to measure IC50. In a final reaction volume of 25 μL, kinase (5 mU to 10 mU) was incubated with 25 mM Tris (pH 7.5), 0.02 mM EGTA, 0.66 mg/ml of myelin basic protein, 10 mM magnesium acetate, and [^33P-ATP] (specific activity of about 500 CPM/pmol, concentration as required). The reaction was initiated by addition of Mg-ATP mix. After incubation for 40 min at room temperature, the reaction was stopped by addition of 5 μl of a 3% phosphoric acid solution. 10 μL of the reaction was then spotted onto a P30 filtermat and washed three times for 5 minutes in 75 mM phosphoric acid and once in methanol prior to drying and scintillation counting.

A further test deals with C-RAF (Homo sapiens (Human), UniProt P04049, Y340D/Y341D). The test is described as above. The settings on record: read-out: Inhibitory effect against kinase activity, C-RAF (IC50). The test is classed as biochemical. Here is the method:
as §3

Another test has as its target V600E-B-RAF (Homo sapiens (Human), UniProt P15056, V600E). The description is as above. The format is biochemical. The note with it: read-out: Inhibitory effect against kinase activity, V600E-B-RAF (IC50). The procedure: as §3
The subject of a further test is LOX IMVI. Put plainly: NCI cancer cell line panel screening (SRB), melanoma cell line LOX IMVI. The test is classed as cell-based, human. The settings on record: read-out: IC50 against melanoma cell line in vitro. Here is the method: as §1, with “Briefly, human cell lines were allowed to grow in an RPMI 1640 medium containing 5% FBS and 2 mM L-glutamine.” left out
as §2, with “Bound stain was subsequently solubilized with 10 mM Trizma base, and the absorbance was read on an automated plate reader at a wavelength of 515 nm.” left out

For another test, the system named is M14. The experiment in a line: NCI cancer cell line panel screening (SRB), melanoma cell line M14. The format is cell-based. The settings on record: Homo sapiens, read-out: IC50 against melanoma cell line in vitro. The procedure: as §1, §2
A further test deals with MDA-MB-435. Put plainly: NCI cancer cell line panel screening (SRB), melanoma cell line MDA-MB-435. The format is cell-based. The note with it: Homo sapiens, read-out: IC50 against melanoma cell line in vitro. Here is the method:
as §1, §2

In a further test the test system is SK-MEL-2. The experiment in a line: NCI cancer cell line panel screening (SRB), melanoma cell line SK-MEL-2. The test is classed as cell-based, human. The settings on record: read-out: IC50 against melanoma cell line in vitro. Here is the method:
as §1, with “Briefly, human cell lines were allowed to grow in an RPMI 1640 medium containing 5% FBS and 2 mM L-glutamine.” left out
as §2, with “Bound stain was subsequently solubilized with 10 mM Trizma base, and the absorbance was read on an automated plate reader at a wavelength of 515 nm.” left out

For another test, the system named is SK-MEL-28. The experiment in a line: NCI cancer cell line panel screening (SRB), melanoma cell line SK-MEL-28. The format is cell-based, human. The settings on record: Homo sapiens, read-out: IC50 against melanoma cell line in vitro. Here is the method: as §1, with “Briefly, human cell lines were allowed to grow in an RPMI 1640 medium containing 5% FBS and 2 mM L-glutamine.” left out
as §2, with “Bound stain was subsequently solubilized with 10 mM Trizma base, and the absorbance was read on an automated plate reader at a wavelength of 515 nm.” left out

In another test the test system is SK-MEL-5. The experiment in a line: NCI cancer cell line panel screening (SRB), melanoma cell line SK-MEL-5. The test is classed as cell-based, human. The settings on record: read-out: IC50 against melanoma cell line in vitro. Here is the method: as §1, with “Briefly, human cell lines were allowed to grow in an RPMI 1640 medium containing 5% FBS and 2 mM L-glutamine.” left out
as §2, with “Bound stain was subsequently solubilized with 10 mM Trizma base, and the absorbance was read on an automated plate reader at a wavelength of 515 nm.” left out

The test system of a further test is UACC-62. Put plainly: NCI cancer cell line panel screening (SRB), melanoma cell line UACC-62. The note with it: Homo sapiens, read-out: IC50 against melanoma cell line in vitro. The format is cell-based. Here is the method: as §1, §2

Molecules are shown by their SMILES. Read-outs that look alike come from different tables or passages of the source.

V600E-B-RAF, sequence (P15056 whole entry V600E): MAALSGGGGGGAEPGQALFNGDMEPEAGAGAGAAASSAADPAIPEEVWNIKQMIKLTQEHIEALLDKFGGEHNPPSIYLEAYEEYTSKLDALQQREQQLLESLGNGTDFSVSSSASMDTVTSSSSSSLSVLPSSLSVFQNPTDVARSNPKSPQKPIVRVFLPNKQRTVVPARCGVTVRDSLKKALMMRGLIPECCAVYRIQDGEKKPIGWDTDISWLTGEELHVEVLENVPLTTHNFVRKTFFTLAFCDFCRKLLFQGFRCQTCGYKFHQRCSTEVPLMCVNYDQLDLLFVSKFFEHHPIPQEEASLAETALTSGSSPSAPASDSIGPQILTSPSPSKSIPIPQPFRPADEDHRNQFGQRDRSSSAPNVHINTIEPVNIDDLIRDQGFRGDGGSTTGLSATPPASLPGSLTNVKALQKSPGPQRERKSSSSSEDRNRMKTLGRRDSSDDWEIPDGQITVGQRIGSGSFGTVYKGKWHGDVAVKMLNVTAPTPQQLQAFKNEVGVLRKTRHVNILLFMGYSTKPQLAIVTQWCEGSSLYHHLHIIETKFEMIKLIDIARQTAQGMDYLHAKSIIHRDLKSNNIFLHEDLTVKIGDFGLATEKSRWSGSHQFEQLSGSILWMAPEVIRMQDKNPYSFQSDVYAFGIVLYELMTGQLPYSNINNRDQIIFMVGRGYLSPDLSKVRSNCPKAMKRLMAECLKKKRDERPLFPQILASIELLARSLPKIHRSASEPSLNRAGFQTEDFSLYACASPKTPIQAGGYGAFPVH
B-RAF, sequence (P15056 whole entry): as the sequence (P15056 whole entry V600E) above, with E600V counted along it
C-RAF, sequence (P04049 306-648 Y340D/Y341D limits assumed): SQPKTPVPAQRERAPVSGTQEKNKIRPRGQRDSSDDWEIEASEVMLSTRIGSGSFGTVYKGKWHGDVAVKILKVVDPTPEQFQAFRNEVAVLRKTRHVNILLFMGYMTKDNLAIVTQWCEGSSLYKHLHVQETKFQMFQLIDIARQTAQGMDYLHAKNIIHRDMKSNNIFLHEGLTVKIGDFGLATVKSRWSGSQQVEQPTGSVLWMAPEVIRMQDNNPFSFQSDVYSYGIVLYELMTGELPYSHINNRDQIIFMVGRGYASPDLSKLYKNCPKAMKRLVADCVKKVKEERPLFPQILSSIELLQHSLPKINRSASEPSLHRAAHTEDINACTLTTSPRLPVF

As for `CN1CCN(CCNc2nccc(-c3c(-c4cccc(O)c4)nc4occn34)n2)S1(=O)=O` [1II, 2-(2-((4-(6-(3-Hydroxylphenyl)imidazo[2,1-b]oxazol-5-yl)pyrimidin-2-yl)amino)ethyl)-5-methyl-1,2,5-thiadiazolidine 1,1-dioxide], the IC50 with A375 came out at 60 nM; on B-RAF it was 3.23 nM; at C-RAF, 2.95 nM; at V600E-B-RAF, 1.85 nM.

For the molecule `COc1ccc(S(=O)(=O)NCCNc2nccc(-c3c(-c4ccccc4)nc4sccn34)n2)cc1` [2III, 4-Methoxy-N-(2-((4-(6-phenylimidazo[2,1-b]thiazol-5-yl)pyrimidin-2-yl)amino)ethyl)benzenesulfonamide], the IC50 came to 3.94 µM in the test on LOX IMVI (Homo sapiens); 2770 nM with M14; 1220 nM with MDA-MB-435; 4.98 µM in the test on SK-MEL-2 (Homo sapiens); 5790 nM with SK-MEL-28; 1680 nM with SK-MEL-5 (Homo sapiens). In addition, the IC50 in the test with UACC-62 was determined as 1170 nM; on B-RAF, 459 nM; on V600E-B-RAF, 77 nM.

`O=S(=O)(NCCNc1nccc(-c2c(-c3cccc(O)c3)nc3sccn23)n1)c1ccc(F)cc1` [25III, 4-Fluoro-N-(2-((4-(6-(3-hydroxylphenyl)imidazo[2,1-b]thiazol-5-yl)pyrimidin-2-yl)amino)ethyl)benzenesulfonamide]: the IC50 was 480 nM with A375; 4.11 µM in the test with LOX IMVI; 560 nM with M14; 930 nM with MDA-MB-435; 4.49 µM in the test with SK-MEL-2; 660 nM in the test with SK-MEL-28. Besides, the IC50 in the test with SK-MEL-5 worked out at 1610 nM; with UACC-62, 260 nM; on B-RAF, 5.7 nM; at V600E-B-RAF, 1 nM.

Take `O=S(=O)(NCCCNc1nccc(-c2c(-c3cccc(O)c3)nc3sccn23)n1)c1ccc(F)cc1` [31III, 4-fluoro-N-(3-((4-(6-(3-hydroxylphenyl)imidazo[2,1-b]thiazol-5-yl)pyrimidin-2-yl)amino)propyl)benzenesulfonamide]: the IC50 in the test with A375 was 300 nM; in the test on LOX IMVI (Homo sapiens), 0.56 µM; with M14, 60 nM; in the test with MDA-MB-435, 240 nM; in the test with SK-MEL-2 (Homo sapiens), 1.1 µM; with SK-MEL-28, 50 nM. Besides, the IC50 with SK-MEL-5 (Homo sapiens) was found to be 1200 nM; with UACC-62 it was 20 nM; on B-RAF it was 4.19 nM; on C-RAF it was 7.83 nM; at V600E-B-RAF it was 0.98 nM.

The term IC50 denotes the point on the concentration scale where inhibition reaches its midpoint.

The values are drawn from US10570155B2, “Imidazooxazole derivative having antitumor effect, and pharmaceutical composition including same” (KOREA INSTITUTE OF SCIENCE AND TECHNOLOGY, priority 2016, dated 2020).
